According to US6569638B1, “Method for screening compounds for the treatment of neoplasia” (Cell Pathways, Inc, priority 2000, dated 2003):

How the values were obtained:
[1] = Toxicity study in dogs (capsules); type: in vivo
Excerpt: Thus, on a single-dose basis, Compound B is not acutely toxic.

[2] = test system: LNCaP cells; assay: Histone-associated fragmented DNA (apoptosis) in prostate tumor cells; type: cell-based, human; settings: 50 μM Compound B (free base), up to 4 days
Protocol: (§1) The androgen-sensitive prostate tumor cell line, LNCaP (from ATCC (Rockville, Md.)) was propagated under standard conditions using […] medium containing 5% fetal calve serum and 2 mM glutamine. Primary prostate epithelial cell cultures (PrEC) derived from normal prostate (from Clonetics Inc. (San Diego, Calif.)) were grown under the same conditions as the tumor cell line except a serum-free medium optimized for the growth of such cultures was used (Clonetics Inc). For the experiments, LNCaP or PrEC cells were seeded in 96 well plates at a density of 10,000 cells per well. After 24 hours, the cells were treated with either vehicle (0.1% DMSO) or 50 μM Compound B (free base) solubilized in DMSO. After various drug treatment times ([…]) the cells were lysed and processed for measurement of histone-associated DNA as an indicator of apoptotic cell death (see, Piazza et al., Cancer Research 57: 2452-2459, 1997).

[3] = test system: PrEC cells; assay: Histone-associated fragmented DNA (apoptosis) in normal prostate epithelial cells; type: cell-based, human; settings: 50 μM, up to 4 days
Protocol: as §1

[4] = test system: CCRF-CEM; assay: Neutral red growth inhibition; type: cell-based, human; settings: Leukemia, HCl salt
Protocol: (§2) Compound B's activity is not confined to activity against colon cancer cell lines or animal models of colon cancer. It has a broad range of anti-neoplastic effects in various neoplastic cell lines. Various types of human cancer cell lines were propagated under sterile conditions in RPMI 1640 medium with 10% fetal bovine serum, 2 mM L-glutamine and sodium bicarbonate. To determine growth inhibitory effects of Compound B, cells were seeded in 96-well plates at a density of 1000 cells per well. Twenty-four hours after plating, the cells were dosed with various concentrations of the free base of Compound B solubilized in DMSO (final concentration 0.1%). The effect of the drug on tumor cell growth was determined using the neutral red cytotoxicity assay following five days of continuous treatment. Neutral red is a dye that is selectively taken up by viable cells by an ATP-dependent transport mechanism.

[5] = test system: Colo 205; assay: Neutral red growth inhibition; type: cell-based, human; settings: Colo 205, Colon, free base
Protocol: as §2

[6] = test system: DU145; assay: Neutral red growth inhibition; type: cell-based, human; settings: DU145, Prostate, free base
Protocol: as §2

[7] = test system: HCT-15; assay: Neutral red growth inhibition; type: cell-based, human; settings: HCT-15, Colon, free base
Protocol: as §2

[8] = test system: HT-29; assay: Neutral red growth inhibition; type: cell-based, human; settings: HT-29, Colon, free base
Protocol: as §2

[9] = test system: MDA-MB-231; assay: Neutral red growth inhibition; type: cell-based, human; settings: MDA-MB-231, Breast, free base
Protocol: as §2

[10] = test system: MDA-MB-435; assay: Neutral red growth inhibition; type: cell-based, human; settings: MDA-MB-435, Breast, free base
Protocol: as §2

[11] = test system: NCI-H23; assay: Neutral red growth inhibition; type: cell-based, human; settings: NCI-H23, Lung, free base
Protocol: as §2

[12] = test system: NCI-H322M; assay: Neutral red growth inhibition; type: cell-based, human; settings: Lung, free base
Protocol: as §2

[13] = test system: NCI-H460; assay: Neutral red growth inhibition; type: cell-based, human; settings: NCI-H460, Lung, free base
Protocol: as §2

[14] = test system: NCI-H82; assay: Neutral red growth inhibition; type: cell-based, human; settings: NCI-H82, Lung, free base
Protocol: as §2

[15] = test system: OVCAR; assay: Neutral red growth inhibition; type: cell-based, human; settings: Ovary, HCl salt
Protocol: as §2

[16] = test system: PC-3; assay: Neutral red growth inhibition; type: cell-based, human; settings: PC-3, Prostate, free base
Protocol: as §2

[17] = test system: SW-620; assay: Neutral red growth inhibition; type: cell-based, human; settings: SW-620, Colon, free base
Protocol: as §2

[18] = test system: UISO-BCA-1; assay: Neutral red growth inhibition; type: cell-based, human; settings: UISO-BCA-1, Breast, free base
Protocol: as §2

[19] = test system: K-562; assay: Neutral red growth inhibition; type: cell-based, human; settings: K-562, Leukemia, HCl salt
Protocol: as §2, with “Twenty-four hours after plating, the cells were dosed with various concentrations of the free base of Compound B solubilized in DMSO (final concentration 0.1%).” left out

[20] = test system: Molt-4; assay: Neutral red growth inhibition; type: cell-based, human; settings: Molt-4, Leukemia, HCl salt
Protocol: as §2, with “Twenty-four hours after plating, the cells were dosed with various concentrations of the free base of Compound B solubilized in DMSO (final concentration 0.1%).” left out

[21] = test system: PANC-1; assay: Neutral red growth inhibition; type: cell-based, human; settings: PANC-1, Pancreas, HCl salt
Protocol: as §2, with “Twenty-four hours after plating, the cells were dosed with various concentrations of the free base of Compound B solubilized in DMSO (final concentration 0.1%).” left out

[22] = test system: RPMI-8226; assay: Neutral red growth inhibition; type: cell-based, human; settings: RPMI-8226, Myeloma, HCl salt
Protocol: as §2, with “Twenty-four hours after plating, the cells were dosed with various concentrations of the free base of Compound B solubilized in DMSO (final concentration 0.1%).” left out

[23] = Safety evaluation in exisulind clinical trials; type: in vivo
Protocol: In these exisulind trials and several others involving the drug in other indications, safety was evaluated by monitoring adverse events (AEs), clinical laboratory tests (hematology, serum chemistry, and urinalysis), vital signs (blood pressure, pulse rate, respiratory rate, temperature, and weight), physical examination, and upper endoscopy.

Q: For `CC1=C(CC(=O)NCc2ccccc2)c2cc(F)ccc2/C1=C\c1ccncc1.Cl` [Compound B, (Z)-5-fluoro-2-methyl-(4-pyridylidene)-3-(N-benzyl)indenylacetamide hydrochloride], which “oral LD50” value [1] is on record?
A: The value was “greater than 1000 mg/kg”.

Q: What about the signs of toxicity ([1]; capsules, single 1000 mg/kg) of the same compound?
A: Its signs of toxicity is “no signs of toxicity”.

Q: And the “signs of drug-related effects” value ([1]; single dose and seven consecutive doses of 1000 mg/kg/day)?
A: Its value is “At no time in either dosing phase were any obvious signs of drug-related effects observed”.

Q: And the “histone-associated fragmented DNA” value [2]?
A: Its value is “significant increase in fragmented DNA was detected after 24 hours of treatment”.

Q: And the DNA fragmentation [3]?
A: Its DNA fragmentation is “did not affect DNA fragmentation”.

Q: And the GI50 [4]?
A: Its GI50 is 1.4 µM.

Q: What about the GI50 [5] of the same compound?
A: Its GI50 is 1.6 µM.

Q: And the GI90 [5]?
A: The GI90 was 2.4 µM.

Q: And the GI50 [6]?
A: Its GI50 is 1.6 µM.

Q: And the GI90 [6]?
A: Its GI90 is 2.8 µM.

Q: What about the GI50 [7] of the same compound?
A: Its GI50 is 1.7 µM.

Q: And the GI90 [7]?
A: The GI90 was 3.0 µM.

Q: And the GI50 [8]?
A: The GI50 was 2.1 µM.

Q: What about the GI90 [8] of the same compound?
A: Its GI90 is 8.0 µM.

Q: What about the GI50 [9] of the same compound?
A: Its GI50 is 1.8 µM.

Q: What about the GI90 [9] of the same compound?
A: The GI90 was 77.6 µM.

Q: And the GI50 [10]?
A: The GI50 was 1.6 µM.

Q: What about the GI90 [10] of the same compound?
A: The GI90 was 2.3 µM.

Q: What about the GI50 [11] of the same compound?
A: Its GI50 is 1.7 µM.

Q: And the GI90 [11]?
A: Its GI90 is 2.5 µM.

Q: And the GI50 [12]?
A: The GI50 was 2.1 µM.

Q: What about the GI90 [12] of the same compound?
A: The GI90 was 13.2 µM.

Q: And the GI50 [13]?
A: Its GI50 is 1.9 µM.

Q: What about the GI90 [13] of the same compound?
A: Its GI90 is 30.0 µM.

Q: What about the GI50 [14] of the same compound?
A: Its GI50 is 1.7 µM.

Q: And the GI90 [14]?
A: Its GI90 is 5.8 µM.

Q: And the GI50 [15]?
A: The GI50 was 1.2 µM.

Q: What about the GI50 [16] of the same compound?
A: Its GI50 is 1.7 µM.

Q: What about the GI90 [16] of the same compound?
A: The GI90 was 82.5 µM.

Q: What about the GI50 [17] of the same compound?
A: The GI50 was 1.7 µM.

Q: What about the GI90 [17] of the same compound?
A: Its GI90 is 2.5 µM.

Q: What about the GI50 [18] of the same compound?
A: Its GI50 is 1.5 µM.

Q: And the GI90 [18]?
A: Its GI90 is 4.7 µM.

Q: What about the GI50 [19] of the same compound?
A: The GI50 was 1.8 µM.

Q: And the GI50 [20]?
A: Its GI50 is 1.6 µM.

Q: What about the GI50 [21] of the same compound?
A: The GI50 was 2.2 µM.

Q: And the GI50 [22]?
A: Its GI50 is 1.2 µM.

Q: Which “safety findings in clinical trials” value ([23]; human, in vivo) does the source give for `CC1=C(CC(=O)O)c2cc(F)ccc2/C1=C\c1ccc(S(C)(=O)=O)cc1` [exisulind, 5-fluoro-2-methyl-1-(p-methylsulfonylbenzylidene)-3-indenylacetic acid] here?
A: The value was “No outstanding safety issues have been demonstrated”.

Q: What about the “maximum tolerated dose (MTD)” value ([23]; patients with intact colons) of the same compound?
A: The value was 400 mg.

Q: What about the “maximum tolerated dose (MTD)” value ([23]; patients with subtotal colectomy) of the same compound?
A: Its value is 600 mg.

Q: What about the “maximum tolerated dose (MTD)” value ([23]; pediatric patients) of the same compound?
A: Its value is 350 mg.
